Key:
Mayaro virus (MAYV) [1] = assay type: cell-based, Mayaro virus (ATCC VR 66, strain TR 4675); conditions: Vero cells infected with MAYV (MOI 1) pre-treated 1 h with compound at its CC50-based concentration or 500 μM; 48 h; MTT; infected control 0%, uninfected 100%
Method: Vero cells (ATCC CCL-81) were used in all in vitro assays. Cells were cultured in DMEM medium supplemented with 2% fetal bovine serum (FBS), penicillin, and streptomycin, and incubated at a constant temperature of 37 °C under a controlled atmosphere of 5% CO2. Mayaro virus (ATCC VR 66, strain TR 4675) was initially propagated in C6/36 cells cultured in L-15 medium supplemented with 2% FBS, incubated at 28 °C. For viral titer determination, Vero cells (10^5 cells/well) were seeded in 24-well plates and cultured for approximately 24 h to achieve 80% confluence. Subsequently, the culture medium was replaced with 10-fold serial dilutions of the viral aliquot. The plate was maintained under constant agitation for 1 h to facilitate viral adsorption. The medium was then replaced with a semisolid medium (incomplete DMEM and 1% carboxymethylcellulose at a 2:1 ratio). Plates were incubated for 48 h under the aforementioned conditions, and cytopathic effects were monitored. After this period, cells were fixed with 10% formaldehyde and stained with 5% crystal violet solution for plaque counting. The mean number of plaques was used to determine the number of plaque-forming units (PFU), and the viral titer was expressed as PFU/mL.
To evaluate the antiviral potential of the molecules under study, an MTT (3-(4,5-dimethylthiazol-2-yl)-2,5-diphenyltetrazolium bromide) reduction assay was employed. Vero cells were seeded in 96-well plates (10^4 cells/well) and cultured until reaching approximately 80% confluence. […] For compounds with undetermined CC50 values, a concentration of 500 μM (the highest concentration tested in the previous study) was used. After incubation, the viral suspension was removed, DMEM medium was added, and cells were incubated for 48 h at 37 °C under a 5% CO2 atmosphere. Cell viability was determined by absorbance reading at 540 nm after solubilization of formazan crystals with DMSO, with the positive control (Vero cells infected with MAYV) defined as 0% cell viability and the negative control (uninfected Vero cells) defined as 100% cell viability. The compound providing the greatest cellular protection was selected for subsequent assays.

Vero cells = tested on: Vero cells; set-up: method as in previous study of our group; conditions: ref previous study of our group; cited from earlier work
Mayaro virus (MAYV) [2] = assay: Pretreatment assay (plaque reduction); assay type: cell-based, Mayaro virus (ATCC VR 66, strain TR 4675); conditions: Vero cells pretreated 3 h with different concentrations, then infected
Method: To determine whether the compound exerts a protective effect on cells prior to viral infection, Vero cells cultured in 24-well plates (10^5 cells/well) were treated for 3 h at 37 °C with 100 μL of the compound at different concentrations, with periodic agitation. Subsequently, the medium was replaced with 100 μL of a solution containing MAYV (100 PFU), and the plates were incubated under constant agitation for 1 h. The viral suspension was then replaced with a semisolid medium (DMEM + 1% carboxymethylcellulose), and the plates were incubated for 48 h at 37 °C under a 5% CO2 atmosphere. Cells were fixed with 10% formaldehyde and stained with 5% crystal violet solution for plaque counting. DMEM was used as the negative control, and 100 PFU of MAYV was used as the positive control (untreated).

Mayaro virus (MAYV) [3] = assay: Virucidal assay (plaque reduction); assay type: cell-based, Mayaro virus (ATCC VR 66, strain TR 4675); conditions: Vero cells
Method: To determine the action of the molecule on viral particles, Vero cells cultured in 24-well plates (10^5 cells/well) at 80% confluence were infected with MAYV (100 PFU/well) previously incubated for 1 h with different concentrations of the compound at 37 °C (100 μL/well). Plates were maintained under agitation for 1 h, and afterward, the viral suspension was replaced with 1 mL of semisolid medium (DMEM + 1% carboxymethylcellulose). Plates were incubated for 48 h at 37 °C and 5% CO2 and subsequently fixed with 10% formaldehyde followed by staining with 5% crystal violet solution for plaque counting. DMEM was used as the negative control, and 100 PFU of untreated MAYV was used as the positive control.

Mayaro virus (MAYV) [4] = assay: Adsorption inhibition assay (plaque reduction); assay type: cell-based, Mayaro virus (ATCC VR 66, strain TR 4675); conditions: 4 °C for 2 h, Vero cells, read-out: Decrease in the number of lysis plaques (adsorption inhibition)
Method: To assess whether the compound interferes with the viral adsorption step, 24-well plates (10^5 cells/well) were cooled at 4 °C for 30 min. The culture medium was removed, and cells were washed with cold PBS, followed by the addition of 100 μL of a solution containing MAYV (100 PFU) and different concentrations of the compound. Cells were incubated at 4 °C for 2 h and subsequently washed with cold citrate buffer (0.1 M citric acid and 0.1 M sodium citrate) and PBS. Semisolid medium (DMEM + 1% carboxymethylcellulose) was then added, and plates were incubated at 37 °C for 48 h. Cells were fixed and stained for plaque counting as previously described. DMEM was used as the negative control, and 100 PFU of MAYV served as the positive control (untreated).

Mayaro virus (MAYV) [5] = assay: Internalization inhibition assay (plaque reduction); assay type: cell-based, Mayaro virus (ATCC VR 66, strain TR 4675); conditions: concentrations between 500 μM and 62.5 μM; Vero cells
Method: To evaluate whether the compound affects the internalization step, 24-well plates (10^5 cells/well) were cooled at 4 °C for 30 min. The culture medium was removed, and cells were incubated with MAYV (100 PFU/well) at 4 °C for 2 h. Cells were washed with cold PBS, and 1 mL of DMEM was added followed by incubation for 5 min at 37 °C. Subsequently, different concentrations of the compound were added and incubated for 1 h at 37 °C. Cells were then washed with cold PBS and citrate buffer. Finally, semisolid medium (DMEM + 1% carboxymethylcellulose) was added, and plates were incubated at 37 °C for 48 h. Cells were fixed and stained for plaque counting. DMEM was used as the negative control, and 100 PFU of MAYV was used as the positive control (untreated).

Mayaro virus (MAYV) [6] = assay: Post-treatment assay (plaque reduction); assay type: cell-based, Mayaro virus (ATCC VR 66, strain TR 4675); conditions: Vero cells treated after MAYV infection, any tested concentration
Method: To determine whether the compound acts after viral infection, Vero cells cultured in 24-well plates (10^5 cells/well) were initially infected with 100 μL of MAYV (100 PFU) and incubated under constant agitation for 1 h. The viral suspension was removed and replaced with 100 μL of the compound at different concentrations, followed by incubation for 3 h at 37 °C with periodic agitation. Subsequently, the medium was replaced with semisolid medium (DMEM + 1% carboxymethylcellulose). After 48 h of incubation at 37 °C and 5% CO2, the cells were fixed with 10% formaldehyde and stained with 5% crystal violet for plaque counting. For the negative control, DMEM was used, and for the positive control, 100 PFU of MAYV (untreated).

MAYV = tested on: MAYV; set-up: method as in Langedries et al.; conditions: Vero cells; ref Langedries et al.; cited from earlier work

SMILES: Cc1ccc(C(C)C)cc1OCC(=O)Nc1ccccc1 [Compound 10]
- Antiviral screening (cell viability %) (Mayaro virus (MAYV) [1]): 0%
- CC50 (Vero cells): > 500 µM

SMILES: Cc1ccc(C(C)C)cc1OCC(=O)Nc1ccccc1Br [Compound 4]
- Antiviral screening (cell viability %) (Mayaro virus (MAYV) [1]): 0%
- CC50 (Vero cells): 372 µM

SMILES: Cc1ccc(C(C)C)cc1OCC(=O)Nc1ccc(Br)cc1 [Compound 6]
- Antiviral screening (cell viability %) (Mayaro virus (MAYV) [1]): 0%
- CC50 (Vero cells): 182 µM

SMILES: Cc1ccc(C(C)C)cc1OCC(=O)Nc1ccc(F)cc1 [Compound 9]
- Number of lysis plaques, pretreatment of cells (Mayaro virus (MAYV) [2]): No reduction in the number of lysis plaques
- Reduction in the number of lysis plaques (virucidal activity) (Mayaro virus (MAYV) [3]; 500 μM, MAYV pre-incubated 1 h with compound): approximately 40%
- Virucidal activity (number of lysis plaques) (Mayaro virus (MAYV) [3]; concentrations ranging from 500 μM to 31.25 μM): significant reduction in the number of lysis plaques
- inhibition at 500 µM (Mayaro virus (MAYV) [4]): ~58%
- Reduction in the number of lysis plaques (internalization inhibition) (Mayaro virus (MAYV) [5]): about 50%
- Viral activity, post-treatment (Mayaro virus (MAYV) [6]): no reduction in viral activity
- CC50 (Vero cells): > 500 µM

SMILES: Cc1ccc(C(C)C)cc1OCC(=O)Nc1cccc(Br)c1 [Compound 5]
- Antiviral screening (cell viability %) (Mayaro virus (MAYV) [1]): 50.0%
- CC50 (Vero cells): > 500 µM

SMILES: Cc1ccc(C(C)C)cc1OCC(=O)Nc1ccccc1F [Compound 7]
- Antiviral screening (cell viability %) (Mayaro virus (MAYV) [1]): 22.83%
- CC50 (Vero cells): > 500 µM

SMILES: NC(=O)c1ncn([C@@H]2O[C@H](CO)[C@@H](O)[C@H]2O)n1 [ribavirin]
- Antiviral activity against MAYV (MAYV): no antiviral activity

SMILES: Cc1ccc(C(C)C)cc1OCC(=O)Nc1ccccc1Cl [Compound 1]
- Antiviral screening (cell viability %) (Mayaro virus (MAYV) [1]): 62.5%
- CC50 (Vero cells): 200 µM

SMILES: Cc1ccc(C(C)C)cc1OCC(=O)Nc1ccc(Cl)cc1 [Compound 3]
- Antiviral screening (cell viability %) (Mayaro virus (MAYV) [1]): 0%
- CC50 (Vero cells): 449 µM
